Measurements: patent US5965578A, “Inhibitors of farnesyl-protein transferase” (Merck & Co., Inc., priority 1997, dated 1999)
pIC50: −log10 of the molar value. Where a name gives a salt, the structure may show the parent alone. Read-outs that look alike come from different tables or passages of the source.

Target: T1, human FPTase (Homo sapiens, UniProt P49354+P49356)
T1 construct: made in house
Test: In vitro inhibition of ras farnesyl transferase (human FPTase assay)
Assay type: biochemical
Procedure: Assays of farnesyl-protein transferase. […] Reactions were initiated with FPTase and stopped with 1 ml of 1.0 M HCL in ethanol. […] Purified compounds were dissolved in 100% dimethyl sulfoxide (DMSO) and were diluted 20-fold into the assay. Percentage inhibition is measured by the amount of incorporation of radioactivity in the presence of the test compound when compared to the amount of incorporation in the absence of the test compound.
Human FPTase activity was assayed as described above with the exception that 0.1% (w/v) polyethylene glycol 20,000, 10 μM ZnCl2 and 100 nM Ras-CVIM were added to the reaction mixture. Reactions were performed for 30 min., stopped with 100 μl of 30% (v/v) trichloroacetic acid (TCA) in ethanol and processed as described above for the bovine enzyme.

| SMILES | pIC50 | pIC50 (human FPTase, 100 nM Ras-CVIM, [3H]-FPP, 30 min, read-out: IC50 of inhibitory activity against human FPTase) |
| --- | --- | --- |
| N#Cc1ccc(Cc2cncn2CC2CCN(c3ccccc3)C(=O)C2)cc1 (centres unmarked) [Example 1, 4-[5-(4-Cyanobenzyl)imidazol-1-ylmethyl]-1-phenyl-2-piperidinone hydrochloride] | ≥ 5.00 | – |
| CCOC(=O)C1(Cc2cccc(C)c2)CCN(Cc2cncn2Cc2ccc(C#N)cc2)CC1=O (centres unmarked) [Example 6, Ethyl 1-[3-(4-cyanobenzyl)-3H-imidazol-4-ylmethyl]-3-oxo-4-(3-methylbenzyl)piperidine-4-carboxylate trifluoroacetate salt] | – | ≥ 5.00 |
